Experimental data as given in the NIST ThermoML archive (doi:10.1021/je400149j).

Test: relative permittivity at zero frequency (dimensionless); xn = mol fraction of the nth substance listed
Details: 101 kPa, Liquid, impedance/gain phase analyzer

C[S+](C)[O-] [dimethyl sulfoxide] + O
relative permittivity at zero frequency
Details | x1 = 0.1536 | x1 = 0.2496 | x1 = 0.3505 | x1 = 0.4975 | x1 = 0.5991 | x1 = 0.7039 | x1 = 0.7882 | x1 = 0.8297 | x1 = 0.9159 | x1 = 1
253.15 K | 91.94 | 88.58 | 84.04 | 76.79 | – | – | – | – | – | –
255.15 K | 91.25 | 87.74 | 83.36 | 76.23 | – | – | – | – | – | –
257.15 K | 90.45 | 86.97 | 82.67 | 75.63 | – | – | – | – | – | –
259.15 K | 89.61 | 86.2 | 82.03 | 75.1 | – | – | – | – | – | –
261.15 K | 88.8 | 85.42 | 81.31 | 74.51 | 69.37 | – | – | – | – | –
263.15 K | 87.94 | 84.64 | 80.65 | 73.97 | 68.84 | – | – | – | – | –
265.15 K | 87.11 | 83.94 | 79.97 | 73.39 | 68.38 | – | – | – | – | –
267.15 K | 86.34 | 83.09 | 79.33 | 72.86 | 67.89 | – | – | – | – | –
269.15 K | 85.49 | 82.43 | 78.71 | 72.29 | 67.37 | – | – | – | – | –
271.15 K | 84.69 | 81.68 | 78.01 | 71.63 | 66.92 | – | – | – | – | –
273.15 K | 83.99 | 80.92 | 77.39 | 71.06 | 66.4 | 60.97 | – | – | – | –
275.15 K | 83.16 | 80.24 | 76.74 | 70.47 | 65.94 | 60.58 | – | – | – | –
277.15 K | 82.38 | 79.52 | 75.92 | 69.92 | 65.48 | 60.19 | – | – | – | –
279.15 K | 81.7 | 78.75 | 75.25 | 69.35 | 65 | 59.84 | 56.06 | – | – | –
281.15 K | 80.98 | 78.14 | 74.63 | 68.84 | 64.52 | 59.46 | 55.83 | – | – | –
283.15 K | 80.31 | 77.42 | 74.04 | 68.36 | 64.1 | 59.05 | 55.54 | 53.95 | – | –
285.15 K | 79.54 | 76.72 | 73.46 | 67.82 | 63.61 | 58.67 | 55.2 | 53.67 | – | –
287.15 K | 78.93 | 76.14 | 72.79 | 67.3 | 63.09 | 58.31 | 54.84 | 53.38 | 50.53 | –
289.15 K | 78.19 | 75.4 | 72.06 | 66.67 | 62.58 | 57.91 | 54.52 | 53.01 | 50.3 | –
291.15 K | 77.43 | 74.76 | 71.47 | 66.13 | 62.13 | 57.57 | 54.21 | 52.68 | 50.06 | 47.15
293.15 K | 76.72 | 74.13 | 70.84 | 65.63 | 61.65 | 57.17 | 53.82 | 52.36 | 49.79 | 47.09
295.15 K | 75.97 | 73.52 | 70.29 | 65.13 | 61.23 | 56.81 | 53.45 | 52.06 | 49.53 | 46.84
297.15 K | 75.33 | 72.88 | 69.71 | 64.67 | 60.76 | 56.37 | 53.1 | 51.72 | 49.27 | 46.64
299.15 K | 74.63 | 72.11 | 69 | 64.12 | 60.32 | 55.99 | 52.77 | 51.42 | 49 | 46.39
301.15 K | 74.02 | 71.48 | 68.41 | 63.63 | 59.83 | 55.59 | 52.41 | 51 | 48.75 | 46.18
303.15 K | 73.34 | 70.83 | 67.88 | 63.07 | 59.38 | 55.21 | 52.03 | 50.7 | 48.48 | 45.94
305.15 K | 72.66 | 70.21 | 67.29 | 62.57 | 58.95 | 54.82 | 51.63 | 50.38 | 48.21 | 45.63
307.15 K | 72.02 | 69.63 | 66.63 | 62.12 | 58.51 | 54.47 | 51.27 | 50.04 | 47.94 | 45.39
309.15 K | 71.28 | 69.05 | 66.07 | 61.59 | 58.1 | 54.05 | 50.9 | 49.68 | 47.64 | 45.14
311.15 K | 70.73 | 68.39 | 65.52 | 61.06 | 57.64 | 53.66 | 50.51 | 49.39 | 47.35 | 44.88
313.15 K | 70.05 | 67.84 | 64.91 | 60.58 | 57.16 | 53.28 | 50.11 | 49.02 | 47.09 | 44.64
315.15 K | 69.51 | 67.3 | 64.33 | 60.13 | 56.72 | 52.92 | 49.73 | 48.67 | 46.85 | 44.34
317.15 K | 68.91 | 66.79 | 63.77 | 59.56 | 56.28 | 52.56 | 49.39 | 48.36 | 46.53 | 44.11
319.15 K | 68.26 | 66.18 | 63.12 | 59.12 | 55.79 | 52.15 | 49.09 | 48 | 46.26 | 43.87
321.15 K | 67.66 | 65.6 | 62.59 | 58.67 | 55.33 | 51.79 | 48.75 | 47.69 | 45.99 | 43.58
323.15 K | 67.01 | 65.07 | 62.03 | 58.11 | 54.85 | 51.43 | 48.37 | 47.33 | 45.72 | 43.31
325.15 K | 66.49 | 64.43 | 61.49 | 57.67 | 54.36 | 51.04 | 48.03 | 47 | 45.4 | 43.07
327.15 K | 65.83 | 63.89 | 60.98 | 57.18 | 54 | 50.64 | 47.64 | 46.66 | 45.12 | 42.78
329.15 K | 65.27 | 63.35 | 60.4 | 56.69 | 53.52 | 50.25 | 47.27 | 46.35 | 44.82 | 42.56
331.15 K | 64.72 | 62.78 | 59.87 | 56.23 | 53.03 | 49.87 | 46.94 | 45.99 | 44.53 | 42.27
333.15 K | 64.08 | 62.18 | 59.28 | 55.72 | 52.61 | 49.49 | 46.57 | 45.67 | 44.23 | 42
